From US11820766B2, “Monoacylglycerol lipase modulators” (Janssen Pharmaceutica NV, priority 2018, dated 2023)
pIC50: −log10 of the molar value.

biological target: T1, human MGL from HeLa cells (Homo sapiens, UniProt Q99685); assay: In vitro MGL activity assay: [glycerol-1,3-3H]-oleyl glycerol cleavage by MGL from HeLa cells; assay type: biochemical; settings: 300 nM [Glycerol-1,3-3H]-oleyl glycerol, one hour
T1 construct: combining endogenously expressed MGL from HeLa cells with test compounds; endogenous in cells; host or cells: HeLa cells / cell homogenates
T1 sequence (Q99685 1-303): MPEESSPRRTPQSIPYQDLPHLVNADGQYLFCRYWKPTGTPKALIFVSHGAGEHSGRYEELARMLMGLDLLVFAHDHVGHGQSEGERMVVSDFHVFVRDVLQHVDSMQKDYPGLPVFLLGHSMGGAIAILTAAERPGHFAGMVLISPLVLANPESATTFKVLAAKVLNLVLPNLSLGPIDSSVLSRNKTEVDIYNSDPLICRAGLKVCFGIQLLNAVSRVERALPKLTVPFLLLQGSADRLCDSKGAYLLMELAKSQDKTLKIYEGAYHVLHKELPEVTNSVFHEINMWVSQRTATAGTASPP
Text: MGL is the predominant hydrolase in HeLa cells/cell homogenates.

| pIC50 | Structure (SMILES) |
| --- | --- |
| 7.45 | Cc1nc(C(=O)N2CCc3c(nn(C)c3-c3cc(F)c(F)c(F)c3)[C@@H]2C)c2cnccn12 [Example 462, [(7S)-2,7-Dimethyl-3-(3,4,5-trifluorophenyl)-5,7-dihydro-4H-pyrazolo[3,4-c]pyridin-6-yl]-(3-methylimidazo[1,5-a]pyrazin-1-yl) methanone] |
| 6.95 | C[C@H]1c2nn(C)c(-c3cc(F)c(F)c(F)c3)c2CCN1C(=O)c1cc2ccccc2nn1 [Example 478, Cinnolin-3-yl-[(7S)-2,7-dimethyl-3-(3,4,5-trifluorophenyl)-5,7-dihydro-4H-pyrazolo[3,4-c]pyridin-6-yl]methanone] |
| 8.18 | C[C@H]1c2nn(C)c(-c3cc(F)c(F)c(F)c3)c2CCN1C(=O)c1nc(C2CC2)n2ccccc12 [Example 421, (3-Cyclopropylimidazo[1,5-a]pyridin-1-yl)-[(7S)-2,7-dimethyl-3-(3,4,5-trifluorophenyl)-5,7-dihydro-4H-pyrazolo[3,4-c]pyridin-6-yl]methanone] |
| 7.52 | Cc1onc(C(=O)N2CCc3c(nn(C)c3-c3cc(F)c(F)c(F)c3)[C@@H]2C)c1C [Example 352, (4,5-Dimethylisoxazol-3-yl)-[(7S)-2,7-dimethyl-3-(3,4,5-trifluorophenyl)-5,7-dihydro-4H-pyrazolo[3,4-c]pyridin-6-yl]methanone] |
| 6.40 | C[C@H]1c2nn(C)c(-c3cncc(OC(F)F)c3)c2CCN1C(=O)c1ccc2ncccc2c1 [Example 528, [(7S)-3-[5-(Difluoromethoxy)-3-pyridyl]-2,7-dimethyl-5,7-dihydro-4H-pyrazolo[3,4-c]pyridin-6-yl]-(6-quinolyl)methanone] |
| 7.60 | C[C@H]1c2nn(C)c(-c3ccc(Cl)c(F)c3)c2CCN1C(=O)c1ccc2ncccc2c1 [Example 504, [(7S)-3-(4-Chloro-3-fluoro-phenyl)-2,7-dimethyl-5,7-dihydro-4H-pyrazolo[3,4-c]pyridin-6-yl]-(6-quinolyl)methanone] |
| 6.85 | C[C@H]1c2nn(C)c(-c3cc(F)c(F)c(F)c3)c2CCN1C(=O)c1ccnc2ncccc12 [Example 491, [(7S)-2,7-Dimethyl-3-(3,4,5-trifluorophenyl)-5,7-dihydro-4H-pyrazolo[3,4-c]pyridin-6-yl]-(1,8-naphthyridin-4-yl)methanone] |
| 7.28 | C[C@H]1c2nn(C)c(-c3cc(F)c(F)c(F)c3)c2CCN1C(=O)c1cnc2c(c1)OCCN2C [Example 572, [(7S)-2,7-Dimethyl-3-(3,4,5-trifluorophenyl)-5,7-dihydro-4H-pyrazolo[3,4-c]pyridin-6-yl]-(4-methyl-2,3-dihydropyrido[3,2-b][1,4]oxazin-7-yl)methanone] |
| 7.40 | Cc1cnn2c(C(=O)N3CCc4c(nn(C)c4-c4cc(F)c(F)c(F)c4)[C@@H]3C)c(C)nc2c1 [Example 457, (2,7-Dimethylimidazo[1,2-b]pyridazin-3-yl)-[(7S)-2,7-dimethyl-3-(3,4,5-trifluorophenyl)-5,7-dihydro-4H-pyrazolo[3,4-c]pyridin-6-yl] methanone] |
| 7.29 | C[C@H]1c2nn(C)c(-c3cc(F)c(F)c(F)c3)c2CCN1C(=O)c1cccc2c1ncn2C [Example 366, [(7S)-2,7-Dimethyl-3-(3,4,5-trifluorophenyl)-5,7-dihydro-4H-pyrazolo[3,4-c]pyridin-6-yl]-(1-methylbenzimidazol-4-yl)methanone] |

same assay, conditions: 300 nM [Glycerol-1,3-3H]-oleyl glycerol, one hour incubation

| pIC50 | Structure (SMILES) |
| --- | --- |
| 6.73 | COc1cc(OC)cc(C(=O)N2CCc3c(nn(C)c3-c3ccccc3)C2)c1 [Example 11, (3,5-Dimethoxyphenyl)-(2-methyl-3-phenyl-5,7-dihydro-4H-pyrazolo[3,4-c]pyridin-6-yl)methanone] |
| 7.74 | C[C@H]1c2nn(C)c(-c3cc(Cl)cc(Cl)c3)c2CCN1C(=O)c1nn(C)c2ncccc12 [Example 173, (S)-(3-(3,5-Dichlorophenyl)-2,7-dimethyl-2,4,5,7-tetrahydro-6H-pyrazolo[3,4-c]pyridin-6-yl)(1-methyl-1H-pyrazolo[3,4-b]pyridin-3-yl)methanone] |
| 8.25 | C[C@H]1c2nn(C(F)F)c(-c3cc(F)c(F)c(F)c3)c2CCN1C(=O)c1ccc2ncccc2c1 [Example 232, (S)-(2-(Difluoromethyl)-7-methyl-3-(3,4,5-trifluorophenyl)-2,4,5,7-tetrahydro-6H-pyrazolo[3,4-c]pyridin-6-yl)(quinolin-6-yl)methanone] |
| 8.59 | C[C@H]1c2nn(C)c(-c3cc(F)c(F)c(F)c3)c2CCN1C(=O)c1cncc2c1ccn2C [Example 224, (S)-(2,7-Dimethyl-3-(3,4,5-trifluorophenyl)-2,4,5,7-tetrahydro-6H-pyrazolo[3,4-c]pyridin-6-yl)(1-methyl-1H-pyrrolo[2,3-c]pyridin-4-yl)methanone] |
| 7.14 | C[C@H]1c2nn(C)c(-c3cc(F)cc(F)c3)c2CCN1C(=O)c1ccccc1-n1nccn1 [Example 147, (S)-(2-(2H-1,2,3-Triazol-2-yl)phenyl)(3-(3,5-difluorophenyl)-2,7-dimethyl-2,4,5,7-tetrahydro-6H-pyrazolo[3,4-c]pyridin-6-yl)methanone] |
| 8.07 | Cc1cnc2cc(C(=O)N3CCc4c(nn(C)c4-c4cc(Cl)cc(Cl)c4)[C@@H]3C)ccc2n1 [Example 176, (S)-(3-(3,5-Dichlorophenyl)-2,7-dimethyl-2,4,5,7-tetrahydro-6H-pyrazolo[3,4-c]pyridin-6-yl)(2-methylquinoxalin-6-yl)methanone] |
| 6.99 | C[C@H]1c2nn(C)c(-c3cc(F)c(F)c(F)c3)c2CCN1C(=O)c1cnn(C)c1C(F)F [Example 330, [5-(Difluoromethyl)-1-methyl-pyrazol-4-yl]-[(7S)-2,7-dimethyl-3-(3,4,5-trifluorophenyl)-5,7-dihydro-4H-pyrazolo[3,4-c]pyridin-6-yl]methanone] |
| 7.95 | CC1c2nn(C)c(-c3cc(F)cc(F)c3)c2CCN1C(=O)c1ccc2nccc(Br)c2c1 (stereo not drawn) [Example 162, (4-Bromoquinolin-6-yl)(3-(3,5-difluorophenyl)-2,7-dimethyl-2,4,5,7-tetrahydro-6H-pyrazolo[3,4-c]pyridin-6-yl)methanone] |
| 7.16 | COc1ccc(C(=O)N2CCc3c(nn(C)c3-c3cc(C)cc(F)c3)[C@@H]2C)cc1 [Example 258, [(7S)-3-(3-Fluoro-5-methyl-phenyl)-2,7-dimethyl-5,7-dihydro-4H-pyrazolo[3,4-c]pyridin-6-yl]-(4-methoxyphenyl)methanone] |
| 7.47 | C[C@H]1c2nn(C)c(-c3cc(F)c(F)c(F)c3)c2CCN1C(=O)c1cccc2cn[nH]c12 [Example 208, (S)-(2,7-Dimethyl-3-(3,4,5-trifluorophenyl)-2,4,5,7-tetrahydro-6H-pyrazolo[3,4-c]pyridin-6-yl)(1H-indazol-7-yl)methanone] |
| 6.64 | Cn1nc2c(c1-c1ccccc1)CCN(C(=O)c1ccc3ncccc3c1)C2 [Example 90, (2-Methyl-3-phenyl-2,4,5,7-tetrahydro-6H-pyrazolo[3,4-c]pyridin-6-yl)(quinolin-6-yl)methanone] |
| 7.90 | COc1ccccc1C(=O)N1CCc2c(nn(C)c2-c2cc(F)c(F)c(F)c2)[C@@H]1C [Example 259, [(7S)-2,7-Dimethyl-3-(3,4,5-trifluorophenyl)-5,7-dihydro-4H-pyrazolo[3,4-c]pyridin-6-yl]-(2-methoxyphenyl)methanone] |
| 7.60 | Cc1cnc2cc(C(=O)N3CCc4c(nn(C)c4-c4cc(F)c(F)c(F)c4)[C@@H]3C)ccc2n1 [Example 243, (S)-(2,7-Dimethyl-3-(3,4,5-trifluorophenyl)-2,4,5,7-tetrahydro-6H-pyrazolo[3,4-c]pyridin-6-yl)(2-methylquinoxalin-6-yl)methanone] |
| 7.17 | CC1c2nn(C)c(-c3cc(F)cc(F)c3)c2CCN1C(=O)c1ncn(-c2ccccc2)n1 (stereo not drawn) [Example 148, (3-(3,5-Difluorophenyl)-2,7-dimethyl-2,4,5,7-tetrahydro-6H-pyrazolo[3,4-c]pyridin-6-yl)(1-phenyl-1H-1,2,4-triazol-3-yl)methanone] |
| 5.91 | Cn1nc2c(c1-c1ccccc1)CCN(C(=O)c1cc3[nH]ccc3s1)C2 [Example 31, (2-Methyl-3-phenyl-2,4,5,7-tetrahydro-6H-pyrazolo[3,4-c]pyridin-6-yl)(4H-thieno[3,2-b]pyrrol-2-yl)methanone] |
| 6.23 | C[C@@H]1c2nn(C)c(-c3cc(F)cc(Cl)c3)c2CCN1C(=O)c1ccc2ncccc2c1 [Example 179, (R)-(3-(3-Chloro-5-fluorophenyl)-2,7-dimethyl-2,4,5,7-tetrahydro-6H-pyrazolo[3,4-c]pyridin-6-yl)(quinolin-6-yl)methanone] |
| 5.95 | Cn1nc2c(c1-c1ccccc1)CCN(C(=O)c1noc3cc(Cl)ccc13)C2 [Example 54, (6-Chlorobenzo[d]isoxazol-3-yl)(2-methyl-3-phenyl-2,4,5,7-tetrahydro-6H-pyrazolo[3,4-c]pyridin-6-yl)methanone] |
| 7.15 | Cn1nc2c(c1-c1ccccc1)CCN(C(=O)c1c(F)ccc3[nH]ccc13)C2 [Example 47, (5-Fluoro-1H-indol-4-yl)(2-methyl-3-phenyl-2,4,5,7-tetrahydro-6H-pyrazolo[3,4-c]pyridin-6-yl)methanone] |
| 8.18 | Cc1cc(C(=O)N2CCc3c(nn(C)c3-c3cc(F)c(F)c(F)c3)[C@@H]2C)c2cccc(F)c2n1 [Example 241, (S)-(2,7-Dimethyl-3-(3,4,5-trifluorophenyl)-2,4,5,7-tetrahydro-6H-pyrazolo[3,4-c]pyridin-6-yl)(8-fluoro-2-methylquinolin-4-yl)methanone] |
| 6.65 | Cn1nc2c(c1-c1ccccc1)CCN(C(=O)c1onc3ccccc13)C2 [Example 55, Benzo[c]isoxazol-3-yl(2-methyl-3-phenyl-2,4,5,7-tetrahydro-6H-pyrazolo[3,4-c]pyridin-6-yl)methanone] |
